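Growth conditions: 96-well plates. Treatment: test compound, 48 hours, 5 concentrations. Analysis: linear interpolation between bracketing concentrations; unreached endpoints set to highest concentration. Here, GI50 denotes the concentration required for 50% inhibition of growth.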 Activity calls are given as the source filed them. No stated cut-off is given here; in the data, active = GI50 up to about 1.1 µM and inactive = higher.
Experiments:
Test in all cases: NCI tumour cell line growth inhibition, 48 h
[1] = tested on: SF-539
[2] = tested on: HOP-92
[3] = tested on: SK-MEL-2
[4] = tested on: Malme-3M
[5] = tested on: HL-60
[6] = tested on: MCF7
[7] = tested on: HCC 2998
[8] = tested on: SW-620
[9] = tested on: SN12C
[10] = tested on: NCI-H23
[11] = tested on: MDA-MB-231
[12] = tested on: BT-549
[13] = tested on: M14
[14] = tested on: COLO 205
[15] = tested on: UO-31
[16] = tested on: NCI-H226
[17] = tested on: K562
[18] = tested on: OVCAR-3
[19] = tested on: SK-MEL-5
[20] = tested on: DLD-1

Structure (SMILES)	GI50 [1]	GI50 [2]	GI50 [3]	GI50 [4]	GI50 [5]	GI50 [6]	GI50 [7]	GI50 [8]	GI50 [9]	GI50 [10]	GI50 [11]	GI50 [12]	GI50 [13]	GI50 [14]	GI50 [15]	GI50 [16]	GI50 [17]	GI50 [18]	GI50 [19]	GI50 [20]
Nc1ccc2c(c1)N(C(=O)c1cc3cc(NC(=O)c4cc5ccccc5o4)ccc3[nH]1)CC2CCl (stereo unspecified)	0.0191 µM (active)	0.168 µM (active)	0.0755 µM (active)	0.122 µM (active)	0.0416 µM (active)	0.0221 µM (active)	0.0724 µM (active)	0.0973 µM (active)	0.215 µM (active)	0.0211 µM (active)	0.239 µM (active)	0.164 µM (active)	0.12 µM (active)	0.0904 µM (active)	0.0296 µM (active)	0.13 µM (active)	0.0662 µM (active)	0.0743 µM (active)	0.0397 µM (active)	
COc1ccc(C2=C(Cl)c3cc(OC)c(OC)cc3C2Cl)cc1OC (stereo unspecified)		24.8 µM (inactive)		19.6 µM (inactive)	13.7 µM (inactive)			15.2 µM (inactive)	17.9 µM (inactive)	15.9 µM (inactive)			17.7 µM (inactive)	18.3 µM (inactive)	16.3 µM (inactive)		10.8 µM (inactive)	15.1 µM (inactive)	14.6 µM (inactive)	15.3 µM (inactive)
COc1cc(CNc2nc3ccc(C(F)(F)F)cc3nc2-c2ccccc2)cc(OC)c1OC	46.7 µM (inactive)		20.9 µM (inactive)	29.6 µM (inactive)	5.55 µM (inactive)		38.8 µM (inactive)	21 µM (inactive)	29.6 µM (inactive)	27.9 µM (inactive)			40 µM (inactive)	38.5 µM (inactive)	5.93 µM (inactive)		18.6 µM (inactive)	26.4 µM (inactive)	18.7 µM (inactive)	48.6 µM (inactive)
COc1cc(Br)c(C2OCCCO2)cc1OCc1ccccc1	73.1 µM (inactive)	9.86 µM (inactive)	> 100 µM (inactive)		38.5 µM (inactive)			> 100 µM (inactive)	> 100 µM (inactive)	85.5 µM (inactive)			67.9 µM (inactive)	> 100 µM (inactive)	28.2 µM (inactive)	17.5 µM (inactive)	53.2 µM (inactive)	47.2 µM (inactive)	46.3 µM (inactive)	39.8 µM (inactive)
O=C(c1ccco1)N(C(=S)N1CCN(c2ccccn2)CC1)C1CCCCC1	> 100 µM (inactive)	> 100 µM (inactive)	> 100 µM (inactive)	> 100 µM (inactive)	> 100 µM (inactive)			> 100 µM (inactive)	> 100 µM (inactive)	> 100 µM (inactive)			> 100 µM (inactive)	> 100 µM (inactive)	83.4 µM (inactive)	> 100 µM (inactive)	> 100 µM (inactive)	> 100 µM (inactive)	> 100 µM (inactive)	> 100 µM (inactive)
CCOP(=O)(OCC)C(C)(C)OC(=O)NC#N	> 100 µM (inactive)	> 100 µM (inactive)	> 100 µM (inactive)	> 100 µM (inactive)	> 100 µM (inactive)	> 100 µM (inactive)	> 100 µM (inactive)	> 100 µM (inactive)	> 100 µM (inactive)	> 100 µM (inactive)	> 100 µM (inactive)	79.6 µM (inactive)	> 100 µM (inactive)	> 100 µM (inactive)	> 100 µM (inactive)	> 100 µM (inactive)	> 100 µM (inactive)	> 100 µM (inactive)	> 100 µM (inactive)	
CCOC(=O)CC(=O)C(=O)NN=C1NCCCN1	> 100 µM (inactive)	> 100 µM (inactive)	> 100 µM (inactive)	> 100 µM (inactive)	> 100 µM (inactive)	> 100 µM (inactive)	> 100 µM (inactive)	> 100 µM (inactive)	> 100 µM (inactive)	> 100 µM (inactive)	> 100 µM (inactive)	> 100 µM (inactive)	> 100 µM (inactive)	> 100 µM (inactive)	> 100 µM (inactive)	> 100 µM (inactive)	> 100 µM (inactive)	> 100 µM (inactive)	> 100 µM (inactive)	
CCOC(=O)CC[C@H](N)C(=O)N[C@@H](Cc1ccc(N(CCCl)CCCl)cc1)C(=O)OCC	0.706 µM (active)	0.475 µM (active)	2.69 µM (inactive)	0.291 µM (active)	0.0705 µM (active)	0.483 µM (active)	1.25 µM (inactive)	0.977 µM (active)	2.15 µM (inactive)	0.278 µM (active)	1.94 µM (inactive)	7.83 µM (inactive)	0.261 µM (active)	0.938 µM (active)	0.807 µM (active)	11.1 µM (inactive)	0.895 µM (active)	0.652 µM (active)	1.5 µM (inactive)	
Nc1ccc(Oc2ccc(C34CC5CC6C3CC3CC4C(C5)C6(c4ccc(Oc5ccc(N)c(O)c5)cc4)C3)cc2)cc1O	0.0255 µM (active)	1.35 µM (inactive)	19.5 µM (inactive)	13.8 µM (inactive)	0.542 µM (active)	4.55 µM (inactive)	1.87 µM (inactive)	4.25 µM (inactive)	1.72 µM (inactive)	3.55 µM (inactive)	3.75 µM (inactive)	1.15 µM (inactive)	2.27 µM (inactive)	1.31 µM (inactive)	2.42 µM (inactive)	3.52 µM (inactive)	2.79 µM (inactive)	1.47 µM (inactive)	2.96 µM (inactive)	
COc1cc(C(c2ccc3c(c2)OCO3)N2C(=O)CCC2C(=O)O)cc(OC)c1OC (stereo unspecified)	> 100 µM (inactive)	> 100 µM (inactive)	> 100 µM (inactive)	> 100 µM (inactive)	> 100 µM (inactive)	> 100 µM (inactive)	> 100 µM (inactive)	> 100 µM (inactive)	> 100 µM (inactive)	> 100 µM (inactive)	> 100 µM (inactive)	> 100 µM (inactive)	> 100 µM (inactive)	> 100 µM (inactive)	> 100 µM (inactive)	> 100 µM (inactive)	> 100 µM (inactive)	> 100 µM (inactive)	> 100 µM (inactive)	
O=C(NCCCN1CCN(CCCNC(=O)c2cnc3ccccc3n2)CC1)c1cnc2ccccc2n1	> 100 µM (inactive)		> 100 µM (inactive)	> 100 µM (inactive)	> 100 µM (inactive)		> 100 µM (inactive)	> 100 µM (inactive)	> 100 µM (inactive)				> 100 µM (inactive)	> 100 µM (inactive)	> 100 µM (inactive)	86.5 µM (inactive)	> 100 µM (inactive)	> 100 µM (inactive)	> 100 µM (inactive)	> 100 µM (inactive)
COc1ccc(C(C#N)NNc2nc(C)cc(O)n2)cc1OC (stereo unspecified)	> 100 µM (inactive)	> 100 µM (inactive)	> 100 µM (inactive)	> 100 µM (inactive)	> 100 µM (inactive)			> 100 µM (inactive)	> 100 µM (inactive)	> 100 µM (inactive)			> 100 µM (inactive)	> 100 µM (inactive)	> 100 µM (inactive)	> 100 µM (inactive)	> 100 µM (inactive)	> 100 µM (inactive)	> 100 µM (inactive)	> 100 µM (inactive)
CC(=O)c1c2n(n(-c3ccccc3)c1=O)C(=O)c1nccnc1-2	> 100 µM (inactive)	> 100 µM (inactive)	> 100 µM (inactive)	> 100 µM (inactive)	> 100 µM (inactive)	> 100 µM (inactive)	> 100 µM (inactive)	> 100 µM (inactive)	> 100 µM (inactive)	> 100 µM (inactive)	> 100 µM (inactive)	> 100 µM (inactive)	> 100 µM (inactive)	> 100 µM (inactive)	> 100 µM (inactive)	> 100 µM (inactive)	> 100 µM (inactive)	> 100 µM (inactive)	> 100 µM (inactive)	
Cc1nc2sc(C(=O)c3ccc(Cl)cc3)c(N)c2c(-c2ccccc2Cl)c1C(=O)Nc1ccccc1	14.7 µM (inactive)	3.08 µM (inactive)	3.08 µM (inactive)	13 µM (inactive)	11.2 µM (inactive)	15.2 µM (inactive)	23.6 µM (inactive)	6.22 µM (inactive)	9.42 µM (inactive)	16.6 µM (inactive)	14.2 µM (inactive)	20.2 µM (inactive)	9.71 µM (inactive)	18.3 µM (inactive)	17.3 µM (inactive)	17.7 µM (inactive)	12.3 µM (inactive)	16.4 µM (inactive)	17.4 µM (inactive)	
Cc1ccc(-c2n[nH]c(=O)n2N)cc1	> 100 µM (inactive)	> 100 µM (inactive)	> 100 µM (inactive)	> 100 µM (inactive)	> 100 µM (inactive)	> 100 µM (inactive)	> 100 µM (inactive)	> 100 µM (inactive)	> 100 µM (inactive)	> 100 µM (inactive)	> 100 µM (inactive)	> 100 µM (inactive)	> 100 µM (inactive)	> 100 µM (inactive)	> 100 µM (inactive)	> 100 µM (inactive)	> 100 µM (inactive)	> 100 µM (inactive)	> 100 µM (inactive)	
CCc1ccccc1-n1c2nc(=O)n(C)c(=O)c-2nc2ccccc21	14.1 µM (inactive)		17.4 µM (inactive)	5.7 µM (inactive)			11.1 µM (inactive)	13.8 µM (inactive)	13.5 µM (inactive)	4.03 µM (inactive)			6.59 µM (inactive)	2.77 µM (inactive)	21.5 µM (inactive)	18.4 µM (inactive)	12.1 µM (inactive)	2.49 µM (inactive)	4.29 µM (inactive)	16.3 µM (inactive)

— ChEMBL document CHEMBL1201862, “PubChem BioAssay data set” (2004)
